The source of these data is patent US9522124B2, “Methods for treating Alzheimer's disease” (Wisconsin Alumni Research Foundation, priority 2011, dated 2016).

In one experiment the target is T1, ATase2 (Homo sapiens, UniProt Q9UHE5).
T1 construct: myc (C); made in house
T1 sequence (Q9UHE5 1-227): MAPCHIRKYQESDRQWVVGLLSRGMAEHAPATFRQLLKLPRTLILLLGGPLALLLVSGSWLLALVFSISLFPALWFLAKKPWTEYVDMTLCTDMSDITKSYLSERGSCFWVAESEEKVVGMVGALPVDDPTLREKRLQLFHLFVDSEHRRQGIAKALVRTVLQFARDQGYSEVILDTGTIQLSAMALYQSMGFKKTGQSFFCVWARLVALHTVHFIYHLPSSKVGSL
Description: AcetylCoA:lysine acetyltransferase assay (fluorescent, affinity purified ATase2-myc). Format: biochemical. Here is the method: (§1) The acetyl:CoA lysine acetyltransferase activity of ATase1 and ATase2 was assayed as described before (Ko and Puglielli, 2009). Briefly, we adapted a commercially available fluorescent kit (cat. no. 10006515, Cayman Chemicals) as follows: as source of the enzymatic activity, we used affinity purified ATase1-myc and ATase2-myc at the final concentration of 300 ng/μl; as donor of the acetyl group, we used acetyl-CoA at the final concentration of 12.5 μM. […] The acetyltransferase assay was performed as recommended by the manufacturer.
(§2) For kinetic analysis of ATase1 and ATase2 inhibition, the assays were performed in the presence of the indicated concentrations of compound 9, 19 and 9.I. The concentration of acetyl-CoA was varied from […]. Values were plotted as a Lineweaver-Burk plot using Graphpad Prism software.
(§3) We previously described a fluorescent assay that is able to assess the acetylCoA:lysine acetyltransferase activity of ATase1 and ATase2 in vitro (Ko and Puglielli, 2009). The assay employs affinity purified ATase1 or ATase2 (as enzymes), acetyl-CoA (as donor of the acetyl group) and a recombinant peptide corresponding to the N-terminal tail of the histone protein H3 (as acceptor of the acetyl group). The H3 peptide was preferred to affinity purified BACE1 because it is acetylated in a conformation independent manner ((Ko and Puglielli, 2009) and data not shown) and, therefore, more suitable for large screening approaches. To identify possible ATase1 and ATase2 inhibitors we used the assay to screen a single library of 14,400 small molecules/compounds. The screen identified 186 small molecules/compounds able to inhibit ATase1, ATase2 or both in vitro. […] Each compound was then screened for cytotoxic properties by using multi-plex cytotoxicity assays on a variety of cell lines, including human neuroblastoma and human neuroglioma. […] The above 30 compounds were individually screened on human neuroglioma (H4) cells for their ability to reduce the levels of BACE1 and the generation of Aβ. Two compounds, 9 and 19, produced significant changes and were object of further study.

The target of a further experiment is T2, ATase1 (Homo sapiens, UniProt Q9UHF3).
T2 construct: myc (C); made in house
T2 sequence (Q9UHF3 1-227): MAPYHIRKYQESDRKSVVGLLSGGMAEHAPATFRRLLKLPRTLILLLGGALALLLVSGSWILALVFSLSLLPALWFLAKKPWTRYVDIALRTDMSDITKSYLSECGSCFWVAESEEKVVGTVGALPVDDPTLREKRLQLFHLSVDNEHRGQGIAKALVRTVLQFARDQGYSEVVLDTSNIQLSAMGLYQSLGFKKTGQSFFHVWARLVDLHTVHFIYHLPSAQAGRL
Description: AcetylCoA:lysine acetyltransferase assay (fluorescent, affinity purified ATase1-myc). Format: biochemical. On the procedure: as §1, §2, §3

The next experiment relates to BACE1. Kind of experiment: Western blot assessment of BACE1 levels in H4 cell lysates. In kind it is cell-based, human. The conditions noted are these: H4 cells, 10 μM, 48 hours. On the procedure:
(§4) Western blotting was performed on a 4-12% Bis-Tris SDS-PAGE system (NuPAGE; Invitrogen, Carlsbad, Calif., USA) as described previously (Costantini et al., 2006; Jonas et al., 2008; Jonas et al., 2010; Ko and Puglielli, 2007; Ko and Puglielli, 2009; Pehar et al., 2010). The following antibodies were used in this study: anti-acetylated lysine (monoclonal; cat. no. ab409; Abcam, Cambridge, Mass., USA); anti-BACE1 (polyclonal; cat. no. ab2077; Abcam); anti-Myc (monoclonal; cat. no. sc-40; santa cruz, Santa Cruz, Calif., USA); anti-ATases/NAT8 (polyclonal; cat. no. AP4957c; Abgent, San Diego, Calif., USA); anti-actin (monoclonal; cat. no. A1978; Sigma, St Louis, Mo., USA); anti-C99 (monoclonal; cat. no. M066-3; MBL, Woburn, Mass., USA); anti-acetylated H3 (polyclonal; cat. no. 06-599, Millipore, Billerica, Mass.); anti-acetylated H4 (polyclonal; cat. no. 06-866, Millipore, Billerica, Mass.); anti-αPCNA (polyclonal; cat. no. AP2835b, Abgent, San Diego, Calif., USA).
Samples were imaged with classical chemiluminescence and with the LiCor Odyssey Infrared Imaging System (LI-COR Biosciences, Lincoln, Nebr., USA). For chemiluminescent detection, HRP-conjugated anti-mouse or anti-rabbit secondary antibodies were used at 1:6000 dilution in 3% BSA/TBST (GE Healthcare). Detection was performed with either Lumiglo (KPL) or ECL Plus (GE Healthcare). For infrared imaging, goat anti-rabbit Alexa Fluor 680-conjugated secondary antibodies were used.
To assess their biological effects, we treated human neuroglioma (H4) cells with 10 μM of both compounds. […] This might reflect different kinetics of inhibition as well as different IC50s (see FIG. 2). Alternatively, it might also be explained by different cell-permeability properties. In fact, the cLog P for compound 9 and 19 is 5.03 and 3.19, respectively. The cLog P (or partition coefficient) is an indication of partition properties of a compound between hydrophobic and hydrophilic compartments. Higher values indicate preferential distribution in hydrophobic environments and, as such, increased permeability across biological membranes.

Experiment [1] concerns cytosolic and nuclear proteins, histone proteins H3 and H4. Description: Lysine acetylation profile of cytosolic and nuclear proteins in H4 cells. In kind it is cell-based, human. The conditions noted are these: 48 hours. Here is the method:
FIG. 8. […] (A and B) H4 cells were treated with either compound 9 or 19 for 48 hours prior to Western blot assessment of the acetylation profile of cytosolic (A) and nuclear (B) proteins. (C) The nuclear fraction used in (B) was also used to assess the lysine acetylation profile of the histone proteins H3 and H4.
as §4
Cytosolic and nuclear extracts were prepared as described before (Ko and Puglielli, 2007). For cytosolic extracts, cells were homogenized in homogenization buffer containing 25 mM Tris-HCl, pH 7.4, 0.5 mM EDTA, 0.5 mM EGTA, and a protease inhibitor mixture. The homogenates were centrifuged at 14,000×g for 15 min, and supernatants were collected as cytosolic proteins.
For nuclear extracts cells were scraped into ice-cold phosphate-buffered saline and collected by centrifugation. The cell pellets were suspended in 3 volumes of lysis buffer (20 mM Hepes, pH 7.9, 10 mM KCl, 1 mM EDTA, pH 8.0, 0.2% Nonidet P-40, 10% glycerol, and a protease inhibitor mixture) followed by incubation on ice for 10 min. Cell suspensions were gently pipetted up and down; the lysates were then centrifuged at 14,000×g for 5 min at 4° C. to obtain nuclear pellets. Nuclear pellets were washed twice with cell lysis buffer (lacking Nonidet P-40 and protease inhibitor mixture) and then resuspended in 2 volumes of nuclear extract buffer (20 mM Hepes, pH 7.9, 10 mM KCl, 1 mM EDTA, pH 8.0, 420 mM NaCl, 20% glycerol, and a protease inhibitor mixture). The nuclei were extracted by incubation at 4° C. for 30 min with gentle agitation followed by centrifugation at 14,000×g at 4° C. for 5 min; the resultant supernatant fraction was used as a nuclear extract.

In a further experiment the test system is Aβ. Kind of experiment: ELISA determination of secreted Aβ in conditioned media of H4 cells. The conditions noted are these: 10 μM, 48 hours. In kind it is cell-based, human. Here is the method:
For Aβ determinations in the conditioned media, H4 cells were plated in 6-well Petri dishes. When 80-90% confluent, cells were washed in PBS and incubated in 1 ml of fresh medium for 48 hr. Secreted Aβ was determined by standard sandwich ELISA as described before (Costantini et al., 2007; Costantini et al., 2006; Jonas et al., 2008; Jonas et al., 2010; Ko and Puglielli, 2009; Pehar et al., 2010). For each sample, the levels of Aβ40, Aβ42, and Aβtotal were quantified as triplicate based upon standard curves run (on every ELISA plate) and then expressed as pmol Aβ/mg of protein. Aβ42 was constantly found to be ˜25% of total Aβ values.

In another experiment the test system is C99. Description: Western blot assessment of C99 levels in H4 cell lysates. In kind it is cell-based, human. The note with it: H4 cells, 48 hours. On the procedure:
FIG. 7. Compound 9 and 19 decrease levels and activity of BACE1. H4 cells were treated with either compound 9 or 19 for 48 hours prior to Western blot assessment of BACE1 and C99 levels in cell lysates. C99 is the immediate product of BACE1-mediated cleavage of APP.
as §4

For experiment [2], the system named is histone acetyltransferase p300/CBP. Kind of experiment: In vitro activity of histone acetyltransferase p300/CBP. Format: biochemical. The conditions noted are these: data not shown.
For experiment [3], the system named is ATase1 and ATase2. Kind of experiment: In vitro acetyltransferase assay, structure-activity of derivatives of compound 9 and 19 (Tables 3, 4). In kind it is biochemical, human. The note with it: refers to Table 3 / Table 4. Here is the method:
as §1, §3
Next we decided to analyze structure-activity properties of both compounds. In the case of compound 9, we designed 13 different chemical derivatives and assessed IC50s in vitro.

In experiment [4] the test system is ATase1 and ATase2. Kind of experiment: Western blot assessment of endogenous ATase1/ATase2 levels in H4 cells. In kind it is cell-based, human. The conditions noted are these: 10 μM, 48 hours. On the procedure: FIG. 4. Compound 9 causes degradation of the ATases. (A) H4 cells were treated with the indicated compounds (10 μM) for 48 hours prior to Western blot assessment of BACE1 and ATase1/ATase2 levels in total cell lysates. (B, D and E) Quantification of changes are expressed as percent of control (no treatment) and are the average (n=3)±S.D.*, P<0.05; **, P<0.005; ^#, P<0.0005. (C) ELISA determination of secreted Aβ in the conditioned media of the experiment described in (A). Results are expressed as percent of control (no treatment) and are the average (n=3)±S.D.*, P<0.05; **, P<0.005. (F) CHO cells over-expressing either ATase1 or ATase2 were treated with compound 9 (10 μM) for 48 hours prior to Western blot assessment of ATase1 and ATase2 levels in total cell lysates.
FIG. 13. Compound 9 decreases the levels of both ATase1 and ATase2. (A) H4 cells were treated with the increasing concentrations of compound 9 for 48 hours prior to Western blot assessment of BACE1 and ATase1/ATase2 levels in total cell lysates. (B-D) Quantification of changes are expressed as percent of control (no treatment) and are the average (n=3)±S.D.*, P<0.05; **, P<0.005; ^#, P<0.0005.
as §4, with “AP2835b, Abgent, San Diego, Calif., USA).” left out
For orientation: In western blotting, separated proteins are transferred to a membrane and probed.

Where [5] appears, read: Lineweaver-Burk plot, acetyl-CoA varied.

`CCOc1ccccc1NC1=C(Cl)C(=O)c2ccccc2C1=O` [Compound 19]: the IC50 is 18.2 µM against ATase2 and about 13.3 µM against ATase1. The “kinetics of inhibition for acetyl-CoA, ATase2” value at ATase2 (setting [5]) is given as “non-competitive inhibition”. Also, at ATase1 (setting [5]), the “kinetics of inhibition for acetyl-CoA, ATase1” value is reported as “non-competitive inhibition”. Besides, in the experiment with BACE1, the “levels of BACE1” value is “significant reduction”. The “acetylation profile of cytosolic and nuclear proteins” value in experiment [1] is “Neither compound 9 nor compound 19 produced significant changes”. The “acetylation profile of the histone protein H3 and H4” value in [1] (nuclear fraction) is “slight reduction”. Further, the “levels of Aβ in the conditioned media / generation of Aβ” value in the experiment on Aβ is given as “decreased levels of Aβ”. In addition, the “cellular levels of C99” value in the experiment on C99 is listed as “decreased cellular levels of C99”. In addition, the “inhibition of in vitro activity of p300/CBP” value in [2] is recorded as “neither compound inhibited”.
In the case of `CCN(CC)c1ccc2nc3c4ccccc4c(=O)cc-3oc2c1` [Compound 9.B], the “levels of BACE1” value in the experiment with BACE1 is on record as “only 9.I retained significant ability”. Also, in the experiment on Aβ, the “levels of Aβ in the conditioned media / generation of Aβ” value is listed as “only 9.I retained significant ability”.
For `O=c1ccc2nc3ccc(O)cc3oc-2c1` [Compound 9.I], in the experiment on ATase1 and ATase2 [3], the “inhibitory activity of derivative relative to parent compound (in words)” value is on record as “retained inhibitory properties”. Also, in the experiment with BACE1, the “levels of BACE1” value is “retained significant ability”. In addition, in the experiment on Aβ, the “levels of Aβ in the conditioned media / generation of Aβ” value is “retained significant ability”. Besides, the “endogenous levels of ATase1 and ATase2” value in the experiment on ATase1 and ATase2 [4] is “significantly down-regulate”.
`O=C1C(Cl)=C2Nc3ccccc3OC2(O)c2ccccc21` (stereo not drawn) [Compound 9.E]: the “inhibitory activity of derivative relative to parent compound (in words)” value in the experiment on ATase1 and ATase2 [3] was “decreased activity”. In the experiment on BACE1, the “levels of BACE1” value is listed as “only 9.I retained significant ability”. For the same molecule, in the experiment with Aβ, the “levels of Aβ in the conditioned media / generation of Aβ” value is “only 9.I retained significant ability”.
Take `Oc1c(Cl)c2nc3ccccc3nc2c2ccccc12` [Compound 9.C]: in the experiment on ATase1 and ATase2 [3], the “inhibitory activity of derivative relative to parent compound (in words)” value is reported as “highest activity”. Moreover, the “levels of BACE1” value in the experiment on BACE1 is listed as “only 9.I retained significant ability”. For the same molecule, in the experiment with Aβ, the “levels of Aβ in the conditioned media / generation of Aβ” value was “only 9.I retained significant ability”.
On to `N=c1c(Cl)c2oc3cc(N)ccc3nc-2c2ccccc12` [Compound 9.A], for which the “levels of BACE1” value with BACE1 is “only 9.I retained significant ability”. For the same molecule, the “levels of Aβ in the conditioned media / generation of Aβ” value in the experiment with Aβ is reported as “only 9.I retained significant ability”.

For orientation: IC50 means the concentration that gives 50% inhibition. High values mean a need for much substance, low ones inhibition by little substance.
